Assays:
[1] = Retention time of the compound by C18 advantage armor column based LC-MS analysis; type: physicochemical
Liver microsome [2] = test: Drug metabolism in human liver microsomes assessed as total metabolite formation at 1 to 50 uM after 20 mins by HPLC-RA analysis in presence of CYP2D6 inhibitor quinidine; type: ADME
Cytochrome P450 4F2 [3] = target: T1, Cytochrome P450 4F2 (Homo sapiens, UniProt P78329); test: Activity at human recombinant CYP4F2 expressed in baculovirus-infected BTI-TN-5B1-4 insect cell microsomes assessed as metabolite formation at 50 uM by HPLC-RA analysis in presence of anti-CYP4F2; type: ADME; details: bti-tn-5b1-4, 50 µM
T1 sequence (P78329 whole entry): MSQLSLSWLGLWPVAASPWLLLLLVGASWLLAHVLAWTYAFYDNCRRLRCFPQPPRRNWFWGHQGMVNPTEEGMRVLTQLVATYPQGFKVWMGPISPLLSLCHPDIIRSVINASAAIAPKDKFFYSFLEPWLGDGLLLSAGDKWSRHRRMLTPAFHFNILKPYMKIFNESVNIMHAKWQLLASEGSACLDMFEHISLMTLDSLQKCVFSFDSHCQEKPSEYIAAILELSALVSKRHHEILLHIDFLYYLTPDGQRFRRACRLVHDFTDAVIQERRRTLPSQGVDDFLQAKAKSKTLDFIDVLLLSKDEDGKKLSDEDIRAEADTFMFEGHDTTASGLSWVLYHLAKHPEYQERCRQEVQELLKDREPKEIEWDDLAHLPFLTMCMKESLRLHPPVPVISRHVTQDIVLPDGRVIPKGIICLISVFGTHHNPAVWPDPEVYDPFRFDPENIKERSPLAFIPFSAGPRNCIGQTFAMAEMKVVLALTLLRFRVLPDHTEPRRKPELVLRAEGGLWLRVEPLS

[4] = Activity at CYP4F in human liver microsomes assessed as metabolite formation after 15 mins measured per mg protein by Eadie-Hofstee plot analysis; type: ADME; details: 0.25 h
[5] = Activity at CYP4F in human liver microsomes assessed as intrinsic clearance for metabolite formation after 15 mins measured per mg protein by Eadie-Hofstee plot analysis; type: ADME; details: 0.25 h
Cytochrome P450 2C9 = Cytochrome P450 2C9 (Homo sapiens, UniProt P11712); test: Activity at CYP2C9 in human liver microsomes isolated from donors assessed as metabolite formation after 24 mins by HPLC-RA analysis; type: ADME; details: 0.4 h
Cytochrome P450 4F3 = Cytochrome P450 4F3 (Homo sapiens, UniProt Q08477); test: Activity at human recombinant CYP4F3A expressed in baculovirus-infected BTI-TN-5B1-4 insect cell microsomes assessed as metabolite formation at 5 to 100 µM after 30 mins by HPLC-RA analysis; type: ADME; details: bti-tn-5b1-4, 0.5 h
Cytochrome P450 2A6 = Cytochrome P450 2A6 (Homo sapiens, UniProt P11509); test: Activity at CYP2A6 in human liver microsomes isolated from donors assessed as metabolite formation after 24 mins by HPLC-RA analysis; type: ADME; details: 0.4 h
[6] = Retention time of the compound by long gradient-based HPLC-RA analysis; type: physicochemical
Cytochrome P450 3A4 = Cytochrome P450 3A4 (Homo sapiens, UniProt P08684); test: Activity at CYP3A4 in human liver microsomes isolated from donors assessed as metabolite formation after 24 mins by HPLC-RA analysis; type: ADME; details: 0.4 h
Cytochrome P450 2C19 = Cytochrome P450 2C19 (Homo sapiens, UniProt P33261); test: Activity at CYP2C19 in human liver microsomes isolated from donors assessed as metabolite formation after 24 mins by HPLC-RA analysis; type: ADME; details: 0.4 h
Cytochrome P450 2B6 = Cytochrome P450 2B6 (Homo sapiens, UniProt P20813); test: Activity at human recombinant CYP2B6 expressed in baculovirus-infected BTI-TN-5B1-4 insect cell microsomes assessed as metabolite formation at 5 to 100 uM after 30 mins by HPLC-RA analysis; type: ADME; details: bti-tn-5b1-4, 0.5 h
Cytochrome P450 1A2 [7] = target: T2, Cytochrome P450 1A2 (Homo sapiens, UniProt P05177); test: Activity at human recombinant CYP1A2 expressed in baculovirus-infected BTI-TN-5B1-4 insect cell microsomes assessed as metabolite formation at 5 to 100 uM after 30 mins by HPLC-RA analysis; type: ADME; details: bti-tn-5b1-4, 0.5 h
Cytochrome P450 1B1 = Cytochrome P450 1B1 (Homo sapiens, UniProt Q16678); test: Activity at human recombinant CYP1B1 expressed in baculovirus-infected BTI-TN-5B1-4 insect cell microsomes assessed as metabolite formation at 5 to 100 uM after 30 mins by HPLC-RA analysis; type: ADME; details: bti-tn-5b1-4, 0.5 h
Cytochrome P450 2C8 = Cytochrome P450 2C8 (Homo sapiens, UniProt P10632); test: Activity at human recombinant CYP2C8 expressed in baculovirus-infected BTI-TN-5B1-4 insect cell microsomes assessed as metabolite formation at 5 to 100 uM after 30 mins by HPLC-RA analysis; type: ADME; details: bti-tn-5b1-4, 0.5 h
[8] = Activity at CYP4F in human liver microsomes assessed as metabolite formation after 15 mins by Eadie-Hofstee plot analysis; type: ADME; details: 0.25 h
[9] = Activity at CYP4A in human liver microsomes assessed as metabolite formation after 24 hrs by HPLC-RA analysis; type: ADME
Cytochrome P450 2E1 = Cytochrome P450 2E1 (Homo sapiens, UniProt P05181); test: Activity at human recombinant CYP2E1 expressed in baculovirus-infected BTI-TN-5B1-4 insect cell microsomes assessed as metabolite formation at 5 to 100 uM after 30 mins by HPLC-RA analysis; type: ADME; details: bti-tn-5b1-4, 0.5 h
Cytochrome P450 1A2 [10] = target: T2, Cytochrome P450 1A2; test: Activity at CYP1A2 in human liver microsomes isolated from donors assessed as metabolite formation after 24 mins by HPLC-RA analysis; type: ADME; details: 0.4 h
Liver microsome [11] = test: Drug metabolism in human liver microsomes assessed as total metabolite formation at 1 to 50 uM after 20 mins by HPLC-RA analysis in presence of CYP3A4 mechanism-based inhibitor TAO and NADPH; type: ADME
Cytochrome P450 2C18 = Cytochrome P450 2C18 (Homo sapiens, UniProt P33260); test: Activity at human recombinant CYP2C18 expressed in baculovirus-infected BTI-TN-5B1-4 insect cell microsomes assessed as metabolite formation at 5 to 100 uM after 30 mins by HPLC-RA analysis; type: ADME; details: bti-tn-5b1-4, 0.5 h
Aromatase = Aromatase (Homo sapiens, UniProt P11511); test: Activity at human recombinant CYP19 expressed in baculovirus-infected BTI-TN-5B1-4 insect cell microsomes assessed as metabolite formation at 5 to 100 uM after 30 mins by HPLC-RA analysis; type: ADME; details: bti-tn-5b1-4, 0.5 h
Cytochrome P450 4A11 = Cytochrome P450 4A11 (Homo sapiens, UniProt Q02928); test: Activity at human recombinant CYP4A11 expressed in baculovirus-infected BTI-TN-5B1-4 insect cell microsomes assessed as metabolite formation at 5 to 100 uM after 30 mins by HPLC-RA analysis; type: ADME; details: bti-tn-5b1-4, 0.5 h
Cytochrome P450 2D6 = Cytochrome P450 2D6 (Homo sapiens, UniProt P10635); test: Activity at CYP2D6 in human liver microsomes isolated from donors assessed as metabolite formation after 24 mins by HPLC-RA analysis; type: ADME; details: 0.4 h
Cytochrome P450 4F2 [12] = target: T1, Cytochrome P450 4F2; test: Activity at human recombinant CYP4F2 expressed in baculovirus-infected BTI-TN-5B1-4 insect cell microsomes assessed as intrinsic clearance for metabolite formation after 15 mins measured per nmol of P450 by Eadie-Hofstee plot analysis; type: ADME; details: bti-tn-5b1-4, 0.25 h
Liver microsome [13] = test: Drug metabolism in human liver microsomes assessed as metabolite formation at 50 uM treated 15 mins after antibody addition measured after 20 mins by HPLC-RA analysis in presence of CYP2D6-specific monoclonal antibody; type: ADME

T2 sequence (P05177 whole entry): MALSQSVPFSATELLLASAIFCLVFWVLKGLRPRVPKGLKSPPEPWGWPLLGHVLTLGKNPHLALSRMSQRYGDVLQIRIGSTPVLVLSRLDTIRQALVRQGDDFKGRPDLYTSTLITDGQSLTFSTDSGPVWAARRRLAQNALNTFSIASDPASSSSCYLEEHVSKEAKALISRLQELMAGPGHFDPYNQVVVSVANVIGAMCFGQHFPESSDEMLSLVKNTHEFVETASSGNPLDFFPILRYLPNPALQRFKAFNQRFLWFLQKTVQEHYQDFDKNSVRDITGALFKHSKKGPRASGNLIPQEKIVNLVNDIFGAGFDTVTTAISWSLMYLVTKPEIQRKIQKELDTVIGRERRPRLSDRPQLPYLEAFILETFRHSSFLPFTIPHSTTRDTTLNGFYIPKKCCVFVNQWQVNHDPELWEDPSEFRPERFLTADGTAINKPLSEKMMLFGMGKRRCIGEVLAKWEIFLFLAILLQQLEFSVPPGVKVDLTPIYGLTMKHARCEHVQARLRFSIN
Chain of Cytochrome P450 4A11 (Q02928 whole entry): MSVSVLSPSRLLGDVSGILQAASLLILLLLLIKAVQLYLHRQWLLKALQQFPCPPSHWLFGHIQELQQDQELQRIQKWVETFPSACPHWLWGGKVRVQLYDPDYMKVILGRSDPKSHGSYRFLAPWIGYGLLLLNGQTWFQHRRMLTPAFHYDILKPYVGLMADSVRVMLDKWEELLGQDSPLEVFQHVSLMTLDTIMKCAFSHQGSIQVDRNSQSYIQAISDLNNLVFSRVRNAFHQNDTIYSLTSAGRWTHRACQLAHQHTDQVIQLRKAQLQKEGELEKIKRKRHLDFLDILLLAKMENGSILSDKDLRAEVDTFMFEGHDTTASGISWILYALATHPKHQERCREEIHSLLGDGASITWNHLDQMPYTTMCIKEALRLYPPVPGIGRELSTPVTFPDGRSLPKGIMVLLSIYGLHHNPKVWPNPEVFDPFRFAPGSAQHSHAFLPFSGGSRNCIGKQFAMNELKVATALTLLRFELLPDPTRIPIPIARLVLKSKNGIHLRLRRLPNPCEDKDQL
Chain of Cytochrome P450 2C8 (P10632 whole entry): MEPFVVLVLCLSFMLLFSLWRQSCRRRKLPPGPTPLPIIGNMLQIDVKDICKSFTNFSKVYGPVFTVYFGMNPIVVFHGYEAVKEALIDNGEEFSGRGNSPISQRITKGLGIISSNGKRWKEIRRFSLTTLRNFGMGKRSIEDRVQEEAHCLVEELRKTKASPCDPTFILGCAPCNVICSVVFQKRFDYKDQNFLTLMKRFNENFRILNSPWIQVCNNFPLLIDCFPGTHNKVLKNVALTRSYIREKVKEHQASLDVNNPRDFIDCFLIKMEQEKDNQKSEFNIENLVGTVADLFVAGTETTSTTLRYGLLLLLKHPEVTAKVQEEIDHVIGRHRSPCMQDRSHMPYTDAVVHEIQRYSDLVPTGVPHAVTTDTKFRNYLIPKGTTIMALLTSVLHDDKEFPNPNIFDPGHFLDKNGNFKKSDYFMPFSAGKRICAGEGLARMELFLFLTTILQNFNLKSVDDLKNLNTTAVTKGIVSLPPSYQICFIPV
Chain of Cytochrome P450 1B1 (Q16678 whole entry): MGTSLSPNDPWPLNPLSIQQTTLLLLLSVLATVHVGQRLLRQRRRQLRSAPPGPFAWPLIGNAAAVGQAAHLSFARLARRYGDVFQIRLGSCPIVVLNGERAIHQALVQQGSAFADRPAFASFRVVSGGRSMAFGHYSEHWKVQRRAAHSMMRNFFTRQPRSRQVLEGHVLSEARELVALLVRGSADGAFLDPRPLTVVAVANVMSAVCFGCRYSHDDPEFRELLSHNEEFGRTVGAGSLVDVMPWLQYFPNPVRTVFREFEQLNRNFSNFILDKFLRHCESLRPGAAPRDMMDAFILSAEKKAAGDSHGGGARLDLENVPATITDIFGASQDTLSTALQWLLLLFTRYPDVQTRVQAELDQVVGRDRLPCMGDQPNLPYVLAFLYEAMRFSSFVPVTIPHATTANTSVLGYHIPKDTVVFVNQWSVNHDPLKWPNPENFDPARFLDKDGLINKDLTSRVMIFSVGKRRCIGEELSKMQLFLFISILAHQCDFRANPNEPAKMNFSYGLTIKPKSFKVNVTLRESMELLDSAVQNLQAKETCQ
Chain of Cytochrome P450 2C9 (P11712 whole entry): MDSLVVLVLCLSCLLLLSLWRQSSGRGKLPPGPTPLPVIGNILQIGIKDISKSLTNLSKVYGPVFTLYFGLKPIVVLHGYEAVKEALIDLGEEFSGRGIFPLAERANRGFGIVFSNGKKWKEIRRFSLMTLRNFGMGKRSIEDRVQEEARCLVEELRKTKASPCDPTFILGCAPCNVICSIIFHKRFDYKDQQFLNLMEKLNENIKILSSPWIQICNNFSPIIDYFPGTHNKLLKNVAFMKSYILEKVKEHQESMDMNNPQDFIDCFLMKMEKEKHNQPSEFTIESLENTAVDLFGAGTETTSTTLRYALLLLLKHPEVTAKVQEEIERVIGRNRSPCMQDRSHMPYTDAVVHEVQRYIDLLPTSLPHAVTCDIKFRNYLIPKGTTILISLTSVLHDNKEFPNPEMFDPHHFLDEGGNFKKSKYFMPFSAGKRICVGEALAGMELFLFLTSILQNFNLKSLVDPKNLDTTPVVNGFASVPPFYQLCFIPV
Chain of Cytochrome P450 2D6 (P10635 whole entry): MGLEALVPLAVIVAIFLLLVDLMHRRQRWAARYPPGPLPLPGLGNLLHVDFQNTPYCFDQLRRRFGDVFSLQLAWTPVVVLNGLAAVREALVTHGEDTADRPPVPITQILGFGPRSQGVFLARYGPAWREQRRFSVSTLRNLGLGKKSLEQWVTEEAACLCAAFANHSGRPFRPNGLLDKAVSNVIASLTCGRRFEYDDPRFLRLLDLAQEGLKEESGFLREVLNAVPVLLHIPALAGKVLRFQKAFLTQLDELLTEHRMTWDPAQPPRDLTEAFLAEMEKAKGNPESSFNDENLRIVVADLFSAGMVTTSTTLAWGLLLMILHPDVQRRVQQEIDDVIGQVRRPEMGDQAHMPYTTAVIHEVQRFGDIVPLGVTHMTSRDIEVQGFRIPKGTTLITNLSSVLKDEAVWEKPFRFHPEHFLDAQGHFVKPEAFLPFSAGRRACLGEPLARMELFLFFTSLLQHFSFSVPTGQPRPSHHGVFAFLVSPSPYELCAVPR
Chain of Cytochrome P450 2A6 (P11509 whole entry): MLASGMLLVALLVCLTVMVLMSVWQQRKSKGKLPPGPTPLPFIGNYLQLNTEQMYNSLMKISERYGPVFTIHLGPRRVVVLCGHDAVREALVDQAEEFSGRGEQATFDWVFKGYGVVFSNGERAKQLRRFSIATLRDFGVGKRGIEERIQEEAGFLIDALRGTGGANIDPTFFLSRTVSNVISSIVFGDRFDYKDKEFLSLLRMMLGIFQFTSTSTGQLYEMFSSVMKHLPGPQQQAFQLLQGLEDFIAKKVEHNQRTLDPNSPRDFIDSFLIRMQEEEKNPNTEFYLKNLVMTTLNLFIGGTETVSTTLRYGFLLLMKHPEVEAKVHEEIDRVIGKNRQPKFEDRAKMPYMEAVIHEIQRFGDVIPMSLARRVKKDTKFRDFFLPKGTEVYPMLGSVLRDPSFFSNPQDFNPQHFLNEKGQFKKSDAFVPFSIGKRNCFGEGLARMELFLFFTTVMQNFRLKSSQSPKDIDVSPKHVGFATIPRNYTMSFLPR
Chain of Cytochrome P450 2C19 (P33261 whole entry): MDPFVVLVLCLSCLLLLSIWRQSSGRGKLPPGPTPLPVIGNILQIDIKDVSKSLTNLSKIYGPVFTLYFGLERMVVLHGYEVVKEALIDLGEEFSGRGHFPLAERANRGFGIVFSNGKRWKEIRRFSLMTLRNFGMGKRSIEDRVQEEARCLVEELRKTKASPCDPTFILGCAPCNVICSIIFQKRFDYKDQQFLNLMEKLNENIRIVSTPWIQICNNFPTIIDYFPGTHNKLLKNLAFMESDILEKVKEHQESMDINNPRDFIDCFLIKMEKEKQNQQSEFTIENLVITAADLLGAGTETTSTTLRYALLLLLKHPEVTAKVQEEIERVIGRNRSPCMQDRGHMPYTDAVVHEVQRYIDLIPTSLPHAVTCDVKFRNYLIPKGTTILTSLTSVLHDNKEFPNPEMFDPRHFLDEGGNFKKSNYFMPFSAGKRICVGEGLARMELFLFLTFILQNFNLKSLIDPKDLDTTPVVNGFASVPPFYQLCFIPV
Chain of Cytochrome P450 2B6 (P20813 whole entry): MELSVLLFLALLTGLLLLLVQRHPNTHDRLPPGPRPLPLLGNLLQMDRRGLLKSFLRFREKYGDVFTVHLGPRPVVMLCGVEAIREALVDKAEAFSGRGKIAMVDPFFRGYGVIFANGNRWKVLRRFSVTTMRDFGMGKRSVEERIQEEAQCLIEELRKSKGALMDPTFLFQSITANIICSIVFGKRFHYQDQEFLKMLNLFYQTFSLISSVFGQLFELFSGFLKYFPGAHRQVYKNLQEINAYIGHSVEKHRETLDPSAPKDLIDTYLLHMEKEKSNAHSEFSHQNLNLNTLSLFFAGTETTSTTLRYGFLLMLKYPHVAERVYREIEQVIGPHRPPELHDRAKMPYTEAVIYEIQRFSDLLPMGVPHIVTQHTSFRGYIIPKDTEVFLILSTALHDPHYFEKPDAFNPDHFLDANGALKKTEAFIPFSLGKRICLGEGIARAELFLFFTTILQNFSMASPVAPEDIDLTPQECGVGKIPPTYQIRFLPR

- Retention_time [1]: 42.7 min
- Drug metabolism (Liver microsome [2]): metabolite_detected
- Drug metabolism (Cytochrome P450 4F2 [3]): metabolite_not_detected
- Vmax [4]: 847 pmol/min
- CLint [5]: 10 µL/min/mg
- Drug metabolism (Cytochrome P450 2C9): metabolite_not_detected
- Drug metabolism (Cytochrome P450 4F3): metabolite_not_detected
- Drug metabolism (Cytochrome P450 2A6): metabolite_not_detected
- Retention_time [6]: 41.9 min
- Drug metabolism (Cytochrome P450 3A4): metabolite_not_detected
- Drug metabolism (Cytochrome P450 2C19): metabolite_not_detected
- Drug metabolism (Cytochrome P450 2B6): metabolite_not_detected
- Drug metabolism (Cytochrome P450 1A2 [7]): metabolite_not_detected
- Drug metabolism (Cytochrome P450 1B1): metabolite_not_detected
- Drug metabolism (Cytochrome P450 2C8): metabolite_not_detected
- Km [8]: 183 µM
- Drug metabolism [9]: metabolite_not_detected
- Drug metabolism (Cytochrome P450 2E1): metabolite_detected
- Drug metabolism (Cytochrome P450 1A2 [10]): metabolite_not_detected
- Drug metabolism (Liver microsome [11]): metabolite_detected
- Drug metabolism (Cytochrome P450 2C18): metabolite_not_detected
- Drug metabolism (Aromatase): metabolite_not_detected
- Drug metabolism (Cytochrome P450 4A11): metabolite_not_detected
- Drug metabolism (Cytochrome P450 2D6): metabolite_not_detected
- CL (Cytochrome P450 4F2 [12]): 23 µL/min
- Drug metabolism (Liver microsome [13]): metabolite_detected
SMILES: CCCCCCCCc1ccc(CC[14C](N)(CO)CO)cc1.Cl
